From ChEMBL document CHEMBL1201862, “PubChem BioAssay data set” (2004)
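Following 48 hours of exposure in 96-well plates, responses at five concentrations were used to interpolate endpoints linearly. GI50 is the concentration that inhibits growth by half.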 Activity calls are given as the source filed them. No stated cut-off is given here; in the data, active = GI50 up to about 1.1 µM and inactive = higher.

Key:
Assay in all cases: inhibition of tumour cell growth, NCI panel, 48 h
786-0 = tested on: 786-0
A549 = tested on: A549
ACHN = tested on: ACHN
CCRF-CEM = tested on: CCRF-CEM
COLO 205 = tested on: COLO 205
DLD-1 = tested on: DLD-1
DMS-273 = tested on: DMS-273
HCC 2998 = tested on: HCC 2998
HCT-15 = tested on: HCT-15
HOP-62 = tested on: HOP-62
HOP-92 = tested on: HOP-92
IGROV-1 = tested on: IGROV-1
K562 = tested on: K562
KM-20L2 = tested on: KM-20L2
LOX IMVI = tested on: LOX IMVI
LXFL 529 = tested on: LXFL 529
M14 = tested on: M14
M19-MEL = tested on: M19-MEL
MOLT-4 = tested on: MOLT-4
Malme-3M = tested on: Malme-3M
NCI-H460 = tested on: NCI-H460
OVCAR-4 = tested on: OVCAR-4
RPMI-8226 = tested on: RPMI-8226
SK-OV-3 = tested on: SK-OV-3
SN12C = tested on: SN12C
SNB-78 = tested on: SNB-78
SW-620 = tested on: SW-620
U-251 = tested on: U-251
UACC-62 = tested on: UACC-62
XF498 = tested on: XF498
A498 = tested on: A498
CAKI-1 = tested on: CAKI-1
DMS-114 = tested on: DMS-114
EKVX = tested on: EKVX
HCT-116 = tested on: HCT-116
HL-60 = tested on: HL-60
HT-29 = tested on: HT-29
KM12 = tested on: KM12
NCI-H226 = tested on: NCI-H226
NCI-H23 = tested on: NCI-H23
NCI-H522 = tested on: NCI-H522
OVCAR-5 = tested on: OVCAR-5
OVCAR-8 = tested on: OVCAR-8
RXF 393 = tested on: RXF 393
SF-268 = tested on: SF-268
SF-295 = tested on: SF-295
SF-539 = tested on: SF-539
SK-MEL-28 = tested on: SK-MEL-28
SK-MEL-2 = tested on: SK-MEL-2
SK-MEL-5 = tested on: SK-MEL-5
SNB-19 = tested on: SNB-19
SNB-75 = tested on: SNB-75
SR = tested on: SR
TK-10 = tested on: TK-10
UACC-257 = tested on: UACC-257
UO-31 = tested on: UO-31
OVCAR-3 = tested on: OVCAR-3

CCOC(=O)C(Cc1ccc2ccccc2c1)(Cc1ccc2ccccc2c1)C(C)=O
GI50 (786-0): 4.92 µM (inactive) | GI50 (A549): 3.78 µM (inactive) | GI50 (ACHN): > 10 µM (inactive) | GI50 (CCRF-CEM): 5.13 µM (inactive) | GI50 (COLO 205): > 10 µM (inactive) | GI50 (DLD-1): 2.69 µM (inactive) | GI50 (DMS-273): 5.38 µM (inactive) | GI50 (HCC 2998): 3.02 µM (inactive) | GI50 (HCT-15): 8.47 µM | GI50 (HOP-62): 7.53 µM (inactive) | GI50 (HOP-92): 5.41 µM (inactive) | GI50 (IGROV-1): > 10 µM (inactive) | GI50 (K562): 1.67 µM (inactive) | GI50 (KM-20L2): > 10 µM (inactive) | GI50 (LOX IMVI): > 10 µM (inactive) | GI50 (LXFL 529): 4.47 µM (inactive) | GI50 (M14): > 10 µM (inactive) | GI50 (M19-MEL): > 10 µM (inactive) | GI50 (MOLT-4): 0.635 µM (active) | GI50 (Malme-3M): 3.28 µM (inactive) | GI50 (NCI-H460): 7.31 µM (inactive) | GI50 (OVCAR-4): 8.67 µM (inactive) | GI50 (RPMI-8226): 1.86 µM (inactive) | GI50 (SK-OV-3): > 10 µM (inactive) | GI50 (SN12C): > 10 µM (inactive) | GI50 (SNB-78): > 10 µM (inactive) | GI50 (SW-620): > 10 µM (inactive) | GI50 (U-251): > 10 µM (inactive) | GI50 (UACC-62): > 10 µM (inactive) | GI50 (XF498): 3.39 µM (inactive)

C/C(=N\O)C(CN(C)C)C(c1ccccc1)c1c(O)c2ccccc2oc1=O (stereo not drawn)
GI50 (786-0): > 100 µM (inactive) | GI50 (A498): > 100 µM (inactive) | GI50 (A549): > 100 µM (inactive) | GI50 (CAKI-1): > 100 µM (inactive) | GI50 (CCRF-CEM): > 100 µM (inactive) | GI50 (COLO 205): > 100 µM (inactive) | GI50 (DLD-1): > 100 µM (inactive) | GI50 (DMS-114): > 100 µM (inactive) | GI50 (DMS-273): > 100 µM (inactive) | GI50 (EKVX): > 100 µM (inactive) | GI50 (HCC 2998): > 100 µM (inactive) | GI50 (HCT-116): > 100 µM (inactive) | GI50 (HCT-15): > 100 µM | GI50 (HL-60): > 100 µM (inactive) | GI50 (HOP-62): > 100 µM (inactive) | GI50 (HOP-92): 34.9 µM (inactive) | GI50 (HT-29): > 100 µM (inactive) | GI50 (IGROV-1): > 100 µM (inactive) | GI50 (K562): > 100 µM (inactive) | GI50 (KM-20L2): > 100 µM (inactive) | GI50 (KM12): > 100 µM (inactive) | GI50 (LOX IMVI): > 100 µM (inactive) | GI50 (LXFL 529): > 100 µM (inactive) | GI50 (M14): > 100 µM (inactive) | GI50 (M19-MEL): > 100 µM (inactive) | GI50 (MOLT-4): > 100 µM (inactive) | GI50 (Malme-3M): > 100 µM (inactive) | GI50 (NCI-H226): > 100 µM (inactive) | GI50 (NCI-H23): > 100 µM (inactive) | GI50 (NCI-H522): > 100 µM (inactive) | GI50 (OVCAR-4): > 100 µM (inactive) | GI50 (OVCAR-5): > 100 µM (inactive) | GI50 (OVCAR-8): > 100 µM (inactive) | GI50 (RPMI-8226): > 100 µM (inactive) | GI50 (RXF 393): > 100 µM (inactive) | GI50 (SF-268): > 100 µM (inactive) | GI50 (SF-295): > 100 µM (inactive) | GI50 (SF-539): > 100 µM (inactive) | GI50 (SK-MEL-28): > 100 µM (inactive) | GI50 (SK-MEL-2): > 100 µM (inactive) | GI50 (SK-MEL-5): > 100 µM (inactive) | GI50 (SK-OV-3): > 100 µM (inactive) | GI50 (SN12C): > 100 µM (inactive) | GI50 (SNB-19): > 100 µM (inactive) | GI50 (SNB-75): > 100 µM (inactive) | GI50 (SNB-78): > 100 µM (inactive) | GI50 (SR): > 100 µM (inactive) | GI50 (SW-620): > 100 µM (inactive) | GI50 (TK-10): > 100 µM (inactive) | GI50 (U-251): > 100 µM (inactive) | GI50 (UACC-257): > 100 µM (inactive) | GI50 (UACC-62): > 100 µM (inactive) | GI50 (UO-31): > 100 µM (inactive) | GI50 (XF498): > 100 µM (inactive)

O=C1c2cccc(O)c2C(=O)c2cccc(O)c21 [ANTHRARUFIN]
GI50 (786-0): > 100 µM (inactive) | GI50 (A498): > 100 µM (inactive) | GI50 (A549): > 100 µM (inactive) | GI50 (ACHN): > 100 µM (inactive) | GI50 (CAKI-1): > 100 µM (inactive) | GI50 (CCRF-CEM): > 100 µM (inactive) | GI50 (COLO 205): > 100 µM (inactive) | GI50 (DLD-1): > 100 µM (inactive) | GI50 (DMS-273): > 100 µM (inactive) | GI50 (EKVX): > 100 µM (inactive) | GI50 (HCC 2998): > 100 µM (inactive) | GI50 (HCT-116): > 100 µM (inactive) | GI50 (HCT-15): > 100 µM | GI50 (HOP-62): > 100 µM (inactive) | GI50 (HOP-92): > 100 µM (inactive) | GI50 (HT-29): > 100 µM (inactive) | GI50 (IGROV-1): > 100 µM (inactive) | GI50 (K562): > 100 µM (inactive) | GI50 (KM12): > 100 µM (inactive) | GI50 (LOX IMVI): > 100 µM (inactive) | GI50 (LXFL 529): > 100 µM (inactive) | GI50 (M14): > 100 µM (inactive) | GI50 (M19-MEL): > 100 µM (inactive) | GI50 (MOLT-4): > 100 µM (inactive) | GI50 (NCI-H226): > 100 µM (inactive) | GI50 (NCI-H23): > 100 µM (inactive) | GI50 (NCI-H460): > 100 µM (inactive) | GI50 (NCI-H522): > 100 µM (inactive) | GI50 (OVCAR-3): > 100 µM (inactive) | GI50 (OVCAR-4): > 100 µM (inactive) | GI50 (OVCAR-5): > 100 µM (inactive) | GI50 (OVCAR-8): > 100 µM (inactive) | GI50 (RPMI-8226): > 100 µM (inactive) | GI50 (RXF 393): > 100 µM (inactive) | GI50 (SF-268): > 100 µM (inactive) | GI50 (SF-295): > 100 µM (inactive) | GI50 (SF-539): > 100 µM (inactive) | GI50 (SK-MEL-2): > 100 µM (inactive) | GI50 (SN12C): > 100 µM (inactive) | GI50 (SNB-19): > 100 µM (inactive) | GI50 (SNB-75): > 100 µM (inactive) | GI50 (SNB-78): > 100 µM (inactive) | GI50 (SW-620): > 100 µM (inactive) | GI50 (TK-10): > 100 µM (inactive) | GI50 (U-251): > 100 µM (inactive) | GI50 (UACC-257): > 100 µM (inactive) | GI50 (UACC-62): > 100 µM (inactive) | GI50 (UO-31): > 100 µM (inactive) | GI50 (XF498): > 100 µM (inactive)
